In ChEMBL document CHEMBL1201862, “PubChem BioAssay data set” (2004):
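Values below derive from 48-hour exposures of cells grown in 96-well plates, with endpoints linearly interpolated between the two concentrations bracketing the appropriate inhibition level. At the GI50, growth is halved.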 Active and inactive are the calls of the source. Cut-off read from the data, not from the text of the source: active = GI50 up to about 1.1 µM and inactive = higher.

Tests used:
Assay in all cases: NCI anticancer screen, dose series, 48 h
[1] = tested on: KM12
[2] = tested on: NCI-H460
[3] = tested on: HOP-62
[4] = tested on: SK-MEL-2
[5] = tested on: SW-620
[6] = tested on: UACC-62
[7] = tested on: SF-268
[8] = tested on: HCT-15
[9] = tested on: HCT-116
[10] = tested on: OVCAR-8
[11] = tested on: A549
[12] = tested on: M14
[13] = tested on: K562
[14] = tested on: MDA-N
[15] = tested on: NCI/ADR-RES
[16] = tested on: Hs-578T
[17] = tested on: RXF 393
[18] = tested on: MCF7
[19] = tested on: A498

Row | Compound | GI50 [1] | GI50 [2] | GI50 [3] | GI50 [4] | GI50 [5] | GI50 [6] | GI50 [7] | GI50 [8] | GI50 [9] | GI50 [10] | GI50 [11] | GI50 [12] | GI50 [13] | GI50 [14] | GI50 [15] | GI50 [16] | GI50 [17] | GI50 [18] | GI50 [19]
1 | C=C1C(=O)O[C@H]2C[C@@H](C)[C@@H]3CC(=O)OC[C@@]3(C)CC12 (some centres undefined) | 20.5 µM (inactive) | 18.8 µM (inactive) | 44.8 µM (inactive) | 35.8 µM (inactive) | 16.7 µM (inactive) | 19.2 µM (inactive) | 27.4 µM (inactive) | 29.4 µM | 21 µM (inactive) | 17.9 µM (inactive) | 27.8 µM (inactive) | 14.4 µM (inactive) | 17.5 µM (inactive) |  |  |  |  |  | 
2 | CCOC(=O)/C=C(\C(=O)OCC)n1cc(C)c(=O)n(Cc2cn(COCCOC(C)=O)nn2)c1=O | 16.2 µM (inactive) | 10.2 µM (inactive) | 20.3 µM (inactive) | 17.3 µM (inactive) | 2.94 µM (inactive) | 17.8 µM (inactive) | 14.7 µM (inactive) | 6.93 µM | 20.5 µM (inactive) | 8.43 µM (inactive) | 27.5 µM (inactive) |  | 5.69 µM (inactive) | 20.2 µM (inactive) | 22.6 µM (inactive) | 17.1 µM (inactive) | 11.6 µM (inactive) | 6.78 µM (inactive) | 
3 | Clc1cc2ncn(C3CCCCO3)c2cc1Cl (centres undefined) | 14.2 µM (inactive) |  | 69.8 µM (inactive) | > 100 µM (inactive) | 53.7 µM (inactive) | 53.5 µM (inactive) | 34.6 µM (inactive) | 63.2 µM | 51.9 µM (inactive) | 56.6 µM (inactive) | 47.8 µM (inactive) | 71.8 µM (inactive) | 46.2 µM (inactive) | 65.8 µM (inactive) | 36.9 µM (inactive) | 23.6 µM (inactive) | 44.7 µM (inactive) | 74 µM (inactive) | 
4 | COP(=O)(CP(=O)(OC)OCCC(C)CCC=C(C)C)OC (centres undefined) | > 100 µM (inactive) | > 100 µM (inactive) | 69.7 µM (inactive) | > 100 µM (inactive) | > 100 µM (inactive) |  | > 100 µM (inactive) | > 100 µM | > 100 µM (inactive) | > 100 µM (inactive) | > 100 µM (inactive) | > 100 µM (inactive) | > 100 µM (inactive) | > 100 µM (inactive) | > 100 µM (inactive) |  | > 100 µM (inactive) | > 100 µM (inactive) | > 100 µM (inactive)
5 | Cc1[nH]c(=O)nc(NCCNCCO)c1C(=O)Nc1c2ccccc2nc2ccccc12 | > 100 µM (inactive) |  | > 100 µM (inactive) | > 100 µM (inactive) | > 100 µM (inactive) | > 100 µM (inactive) |  | > 100 µM | > 100 µM (inactive) | > 100 µM (inactive) | > 100 µM (inactive) | > 100 µM (inactive) | > 100 µM (inactive) | > 100 µM (inactive) | > 100 µM (inactive) |  | > 100 µM (inactive) | > 100 µM (inactive) | > 100 µM (inactive)
6 | COc1cc(OC)nc(Nc2c(C#N)c3nc4ccccc4n3c3ccccc23)n1 | 45.9 µM (inactive) | 43 µM (inactive) | 16.6 µM (inactive) | 25.8 µM (inactive) | > 100 µM (inactive) | 37.1 µM (inactive) | 29.9 µM (inactive) | > 100 µM | 29.6 µM (inactive) | 34.9 µM (inactive) | > 100 µM (inactive) | > 100 µM (inactive) | > 100 µM (inactive) | > 100 µM (inactive) | 29.8 µM (inactive) | 47.6 µM (inactive) | 39.8 µM (inactive) | 22.2 µM (inactive) | 
7 | CC(=O)OCC(=O)OC[C@H](OCc1ccccc1)[C@@H]1[C@H](OC(C)=O)C(=O)N1Cc1ccccc1 | > 100 µM (inactive) |  | > 100 µM (inactive) | > 100 µM (inactive) | > 100 µM (inactive) | > 100 µM (inactive) | > 100 µM (inactive) | > 100 µM | > 100 µM (inactive) | > 100 µM (inactive) | > 100 µM (inactive) | > 100 µM (inactive) | > 100 µM (inactive) | > 100 µM (inactive) | > 100 µM (inactive) | > 100 µM (inactive) |  | > 100 µM (inactive) | > 100 µM (inactive)
8 | COc1ccc(C2=C(N)c3cc(OC)ccc3C2=O)cc1 | 29.2 µM (inactive) | > 100 µM (inactive) | > 100 µM (inactive) | > 100 µM (inactive) | > 100 µM (inactive) | > 100 µM (inactive) | 47.3 µM (inactive) | > 100 µM | > 100 µM (inactive) | > 100 µM (inactive) | > 100 µM (inactive) | > 100 µM (inactive) |  | > 100 µM (inactive) | 88.7 µM (inactive) | 4.25 µM (inactive) |  | > 100 µM (inactive) | > 100 µM (inactive)
9 | CCOC(=O)N1CCN(Cc2cc(=O)n3cc(C)ccc3n2)CC1 | > 100 µM (inactive) | > 100 µM (inactive) | > 100 µM (inactive) | > 100 µM (inactive) | > 100 µM (inactive) | > 100 µM (inactive) | > 100 µM (inactive) | > 100 µM | > 100 µM (inactive) | > 100 µM (inactive) | > 100 µM (inactive) | > 100 µM (inactive) | > 100 µM (inactive) | > 100 µM (inactive) | > 100 µM (inactive) | > 100 µM (inactive) |  | > 100 µM (inactive) | 
10 | CC[n+]1cnc(N)c2c(-c3ccc(Cl)cc3)cn(-c3ccc(C)cc3)c21 | 15.8 µM (inactive) | 15.7 µM (inactive) | 16.8 µM (inactive) | 18.7 µM (inactive) | 15.3 µM (inactive) | 11.4 µM (inactive) | 13.6 µM (inactive) | 14.9 µM | 9.4 µM (inactive) | 18.5 µM (inactive) | 12.7 µM (inactive) | 1.94 µM (inactive) | 5.33 µM (inactive) | 12.5 µM (inactive) | 12.9 µM (inactive) |  | 3.05 µM (inactive) | 0.971 µM (active) | 11.4 µM (inactive)
11 | CCN(CC)c1ccc2nc3ccc(/N=N/c4c(O)ccc5ccccc45)cc3[n+](-c3ccccc3)c2c1 | > 100 µM (inactive) |  | > 100 µM (inactive) | > 100 µM (inactive) | > 100 µM (inactive) | > 100 µM (inactive) | > 100 µM (inactive) | > 100 µM | > 100 µM (inactive) | > 100 µM (inactive) | > 100 µM (inactive) | > 100 µM (inactive) | > 100 µM (inactive) | > 100 µM (inactive) | > 100 µM (inactive) | > 100 µM (inactive) | > 100 µM (inactive) |  | 
12 | COc1cc(OC)cc(N2CCC(c3c(N)nc(N)nc3Cl)CC2)c1 | 66.4 µM (inactive) | 53.7 µM (inactive) | 62.2 µM (inactive) | 92.3 µM (inactive) | 65 µM (inactive) | 52.6 µM (inactive) | 98.2 µM (inactive) | 99.5 µM |  | > 100 µM (inactive) | 65 µM (inactive) | 75.3 µM (inactive) | 31.6 µM (inactive) |  |  |  | > 100 µM (inactive) |  | 
13 | Cc1cc2c(cc1Cl)Sc1n[nH]c(=O)n1S2(=O)=O | > 100 µM (inactive) | > 100 µM (inactive) | > 100 µM (inactive) |  | > 100 µM (inactive) | > 100 µM (inactive) | > 100 µM (inactive) | > 100 µM | > 100 µM (inactive) | > 100 µM (inactive) | > 100 µM (inactive) | > 100 µM (inactive) | > 100 µM (inactive) | > 100 µM (inactive) | > 100 µM (inactive) | > 100 µM (inactive) |  | > 100 µM (inactive) | 19.4 µM (inactive)
14 | Oc1ccccc1/C=N/c1ccc(Oc2ccc(Cl)cc2)c(Cl)c1 | 23.8 µM (inactive) | 18.6 µM (inactive) | 15.5 µM (inactive) | 13.6 µM (inactive) | 28.9 µM (inactive) | 24.9 µM (inactive) | 17.9 µM (inactive) | 16.3 µM | 16.7 µM (inactive) | 19.9 µM (inactive) | 20.6 µM (inactive) | 18.5 µM (inactive) |  |  | 19.3 µM (inactive) | 19.7 µM (inactive) |  | 41.7 µM (inactive) | 11.5 µM (inactive)
15 | Nc1cccc(S(=O)(=O)Nc2nnc(S(N)(=O)=O)s2)c1 | > 100 µM (inactive) | > 100 µM (inactive) | > 100 µM (inactive) | > 100 µM (inactive) | > 100 µM (inactive) | > 100 µM (inactive) | > 100 µM (inactive) | > 100 µM | > 100 µM (inactive) | > 100 µM (inactive) | > 100 µM (inactive) | > 100 µM (inactive) | > 100 µM (inactive) |  | > 100 µM (inactive) |  | > 100 µM (inactive) | > 100 µM (inactive) | > 100 µM (inactive)
16 | C[C@@H](C1CC[C@H]2[C@@H]3[C@@H]4O[C@@H]4[C@@]4(O)CC=CC(=O)[C@]4(C)[C@H]3C[C@H](O)[C@]12C)[C@H]1C[C@]2(C)O[C@]2(C)C(=O)O1 (some centres undefined) | > 100 µM (inactive) | > 100 µM (inactive) |  | > 100 µM (inactive) | > 100 µM (inactive) | > 100 µM (inactive) | > 100 µM (inactive) | > 100 µM | > 100 µM (inactive) | > 100 µM (inactive) | > 100 µM (inactive) | > 100 µM (inactive) | > 100 µM (inactive) | > 100 µM (inactive) | > 100 µM (inactive) | > 100 µM (inactive) |  | > 100 µM (inactive) | > 100 µM (inactive)
17 | O=C1CC(c2cccc(Cl)c2)Oc2ccccc21 (centres undefined) | 15.7 µM (inactive) | 18.4 µM (inactive) | 17.1 µM (inactive) | 19.9 µM (inactive) | 18.3 µM (inactive) | 14.9 µM (inactive) | 22.3 µM (inactive) | 15.9 µM | 15.9 µM (inactive) | 29.2 µM (inactive) |  | 18.1 µM (inactive) | 2.9 µM (inactive) |  | 26.2 µM (inactive) | 23.6 µM (inactive) |  | 6.4 µM (inactive) | 24.7 µM (inactive)
